Results on 90 compounds are retold here after a melting point compilation (Tetko et al.; mined from patent text by program, amines drawn as free bases though some values may be those of a salt).

Structures are written as SMILES.

In the case of `CC1CC(=O)NN=C1c1ccc(-n2ccnc2)nc1` (stereo not given), the melting point worked out at 140 °C. Next, `c1ccc(-c2nn3c(c2-c2nc4ncccc4[nH]2)CCC3)nc1`: 170 to 172 °C. Next, `CCCCNCCCOc1ccc(-c2ccc(C(=O)O)cc2)cc1-c1ccc2c(c1)C(C)(C)CCC2(C)C`: 238 °C; `CCOC(=O)/C=C/c1ccc(Cl)nn1`: 106 to 110 °C; `Cn1cc(C2=C(c3ccncc3)C(=O)NC2=O)c2ccccc21`: 332 to 334 °C. `CC(C)(NC(=O)OCc1ccccc1)C(=O)Nc1ccc([N+](=O)[O-])cc1C(=O)c1ccccc1F` displayed a melting point of 153 to 155 °C. In the case of `CC(C)(C)c1cc2c(c(C(C)(C)C)c1)OC(=O)C2c1ccc(OCCO)cc1` (stereo not given) it was 132 to 135 °C; in that of `CC1(C)CCC(C)(C)c2cc(-c3cc(C=CC(=O)O)ccc3O)c(OCc3ccc(Cl)cc3)cc21`, 147 to 149 °C. In the case of `COC(=O)c1ccc(S(=O)(=O)N2CC[C@H](OS(C)(=O)=O)C2)n1C` it was 79 to 81 °C.

`COCCCn1nnnc1-c1cc(-c2ccccc2C(F)(F)F)c(O)cc1O` came in with a melting point of 207 to 210 °C. Next, `CC(=O)NC[C@H]1CN(c2ccc(-c3ccncc3)c(F)c2)C(=O)O1`: 179 to 180 °C. In the case of `Fc1cc2c(Nc3ccc(OCc4ccccn4)c(Cl)c3)ncnc2cn1` it was 216 to 219 °C. In turn, `CS(=O)(=O)Nc1cc2occ(-c3cscn3)c(=O)c2cc1Oc1ccccc1` displayed a melting point of more than 250 °C. In the case of `Cc1cc(C2=C(C=CC3CC(O)CC(=O)O3)C(C)(C)CC(N3C(=O)CCC3=O)C2)ccc1F` (stereo not given) it was 71 to 77 °C; in that of `O=C(Nc1cccc(-c2cc(-c3c(Cl)cccc3Cl)no2)c1)C(Cl)Cl`, 167 °C; in that of `ClCCCCSCc1ccc2ccccc2c1`, 47 to 49 °C.

`Cc1cccc(-c2[nH]c(C(C)C)nc2-c2ccc(F)c(-c3ccc(C)[nH]3)c2)n1` had a melting point of 118 to 121 °C. The compound `N#Cc1cc(-c2ccc3c(c2)C2(CCCC2)C(=O)N3)ccc1F` showed a melting point of 264 to 266 °C. In the case of `O=C(NCCCC[C@H](NC(=O)OCc1ccccc1)C(=O)Nc1ccc(-c2ccc(C(=O)O)c(=O)[nH]2)cc1)OCc1ccccc1` it was 199 to 200 °C. Compound `O=C(N[C@@H](CO)c1ccccc1)c1ccco1` showed a melting point of 130 to 131 °C. Next, `COc1ccc(CCOc2cncc(-c3cccc(C(=O)O)c3)c2)cc1OC`: 181 to 182 °C; `N#Cc1ccccc1Nc1ccccc1[N+](=O)[O-]`: 134 to 138 °C. Next, `Cc1oc(-c2ccccc2)nc1CCOc1ccc(C(=O)O)c(O)c1`: 192 to 194 °C; `Oc1ccc(O)c(C2(c3ccccc3)CC3CCC2C3)c1` (stereo not given): 179 to 181 °C; `COc1cc(C)c(C(=O)c2c(OC)cnc(Br)c2Cl)c(OC)c1OC`: 97 to 99 °C. In the case of `C1=C(c2cc3ccccc3s2)CCC2(C1)CCNCC2` it was 107 to 110 °C; in that of `O=[N+]([O-])c1ccc(-c2ccc(-c3ccc([N+](=O)[O-])cc3OCc3ccccc3)o2)c(OCc2ccccc2)c1`, 233 to 237 °C; in that of `N#CC1OC12CCN(C(=O)c1ccc(F)c(Cl)c1)CC2` (stereo not given), 100 to 101 °C. Take `COc1cccc(OC)c1CN1C(=O)C2CCCN2c2ccccc21` (stereo not given): the melting point lay in the range of 128 to 130 °C. Next, `Nc1ccc(C(=O)OCc2ccccc2)c(F)n1`: 92 to 94 °C; `CC(=O)Oc1ccccc1NC(=O)c1cc(Cl)c(OC(C)=O)c(Cl)c1`: 154 to 156 °C; `CCCc1c(OCCCOc2ccc(C(C)=O)c(OCc3ccccc3)c2CCC)ccc2c1OC(CO)CC2` (stereo not given): 83 to 85 °C. Compound `CS(=O)(=O)c1cccc(Nc2cc(-c3ccc(C(F)(F)F)cc3)ncn2)c1` came in with a melting point of 204 to 205 °C. In the case of `O=C1NC(=O)C2(CC(Br)c3ccccc32)N1` (stereo not given), the melting point fell in the range of 58 to 65 °C. Next, `Fc1cc2nn(CCC#Cc3ccccn3)nc2cc1F`: 131 to 132 °C. In turn, `CCOCCO[C@@H]1c2ccn3c(C)c(C)nc3c2N[C@H](c2ccccc2)[C@H]1OC(=O)OCCCC(Cl)CC` (stereo not given in full) displayed a melting point of 124 °C. Next, `CCCCCCCCCCCCn1nnnc1CCC(=O)Nc1c(OC)cc(OC)cc1OC`: 57 to 61 °C; `Cc1nn(-c2c(Cl)cc(C(F)(F)F)cc2Cl)c(N)c1SC(C)(F)F`: 123 to 125 °C. In the case of `NCC1Cc2cc(C(F)(F)F)cc(-c3ccc(Cl)cc3)c2O1` (stereo not given) it was more than 250 °C; in that of `CCCOc1ccc2cc(OCc3ccccc3)c(C(=O)O)cc2c1`, 125 to 128 °C; in that of `Nc1ccccc1Sc1ccccc1-c1nnn[nH]1`, 153 to 156 °C. Next, `Cc1[nH]c(S(C)(=O)=O)nc1-c1cc(C(C)(C)C)c(O)c(C(C)(C)C)c1`: 235 to 237 °C. Consider `CCCCC1=C(/C=C/C(=O)Oc2ccc([N+](=O)[O-])cc2)CCc2cc(OC)ccc21`, for which the melting point lay within 94 to 95 °C.

Regarding `CCCN(CCC)C(=O)Cc1ccc(O)c2[nH]ncc12`, the melting point lay in the range of 164 to 165 °C. In the case of `O=c1[nH]c2nc(SCc3ccccc3)ncc2cc1Oc1ccc(F)cc1F` it was 240 to 244 °C. `CN1CC[C@]2(c3cccc(O)c3)CC=CC[C@@H]2C1` (relative stereo) had a melting point of 159 °C. Next, `Cn1c(C(F)(F)F)cc(=O)n(-c2nc(Cl)c(Cl)cc2F)c1=O`: 113 to 115 °C.

The compound `CC1=Cc2ccsc2Sc2ccccc21` came in with a melting point of 70 to 71 °C. Next, `COc1ccc2c(c1)Sc1cc(OC)c(Cl)cc1C(O)C2` (stereo not given): 105 to 106 °C. Next, `CCOC(=O)C(Cc1ccc(C(F)(F)F)cc1)C(=O)c1ccc(F)c(F)c1` (stereo not given): 48 to 49 °C. Next, `CNc1ccccc1C(=O)NCCCn1ccnc1`: 138 to 141 °C. In the case of `CCc1c(C)c2c(OC)cc(-c3ccc(C(C)C)cc3)cc2oc1=O`, the melting point came out at 115 °C. Next, `NC(=O)[C@H]1CN(c2ccc(I)c(F)c2)C(=O)O1`: 176 to 178 °C; `O=c1oc(Nc2ccccc2F)nc2ccccc12`: 152 to 155 °C; `Cc1nc2nccc(Cl)c2cc1Br`: 160 to 164 °C. In the case of `COC(=O)c1c(S(C)(=O)=O)ccc(C(=O)C2C(=O)CCCC2=O)c1Cl` it was 160 to 162 °C; in that of `CSc1ccccc1C(=O)CBr`, 81 to 82 °C. In the case of `CN1C(=O)NC(N)C1=O` (stereo not given), the melting point lay within 122 to 125 °C. The compound `CCCCCN1C(=O)C2(COc3cc4c(cc32)OCCO4)c2ccccc21` (stereo not given) displayed a melting point of 111 to 113 °C. Next, `CC(C)(Oc1ccc(CCC(=O)c2ccc(-c3ccc(OC(F)(F)F)cc3)s2)c(Cl)c1Cl)C(=O)O`: 135 to 136 °C.

As to `COc1cc(Cc2cnc(N)nc2N)ccc1N`, the melting point was in the range of 210 to 212 °C.

`Cc1ccc(S(=O)(=O)N2CCC(Sc3ccc(F)cc3)CC2)cc1` gave a melting point of 131 to 132 °C. In the case of `COc1cc2c(cc1OC)C(c1cccc(Cl)c1)=NNC(C)C2` (stereo not given) it was 116 to 120 °C; in that of `Cc1c(NC(=O)c2ccc(CC(=O)C3CCOC3)cc2)ccc2cc(CN3CCCC3)cnc12` (stereo not given), 142 to 143 °C.

For the compound `Cc1cc(F)cc(C)c1Cl`, the melting point lay within 64 to 65 °C. In the case of `Cc1nnnn1-c1ncccc1C(=O)O` it was 178 to 180 °C; in that of `COc1ccc2[nH]cc(CCCN(CC3CC3)C3COc4c(F)ccc(C(N)=O)c4C3)c2c1` (stereo not given), 148 to 154 °C; in that of `Cn1nc2c(N)nc3ccccc3c2c1CC(C)(C)C`, 254 to 255 °C.

Consider `COc1ccc(-n2nc3c(cc2=O)CCCc2sc(CO)cc2-3)cc1`, for which the melting point is 130 to 131 °C. Next, `Cn1nc(-c2cc(O)c(C#N)cc2F)c(Cl)c1C(F)(F)F`: 151 °C.

In the case of `O=C1C(=O)c2ccccc2C2=C1SCC1(CCN(CC(O)CC(F)(F)F)CC1)O2` (stereo not given), the melting point fell in the range of 145 to 148 °C. In the case of `CC1(C)C2CC[C@@]1(N1CCCCC1)C(=O)C2` it was 78 to 79 °C; in that of `OCc1ccc(OCc2ccccc2)c(F)c1`, 56 to 57 °C. Next, `CCOC(=O)c1nc2ccc(OC)cc2[nH]c1=O`: 229 °C; `CC1(C)C=Cc2cc(OCc3ccccc3)c(OCc3ccccc3)cc2O1`: 50 to 51 °C.

On to `CCOC(=O)c1ccc(NCc2ccc(OCc3ccccc3)cc2)cc1`, for which the melting point fell in the range of 144 to 146 °C.

`COC1(c2nc3ccc(F)cc3s2)C=CC(=NS(=O)(=O)c2ccc(C)cc2)C=C1` (stereo not given) came in with a melting point of 135 °C. In the case of `O=C1NC(c2ccccc2)CN1S(=O)(=O)c1ccc2c(c1)CCN2C(=S)Nc1ccc(F)cc1` (stereo not given) it was 190 to 192 °C. In the case of `Cc1nc(Cc2ccc([N+](=O)[O-])cc2)no1` it was 66 to 67 °C. `O=C1OC(O)c2cccc(O)c21` (stereo not given) showed a melting point of 124 to 126 °C. Next, `CC(C)(C#N)Cc1ccc(-c2ccc(CC(C)(C)C#N)c(Cl)c2)cc1Cl`: 148 to 156 °C. In the case of `CCn1cc(C(=O)NN)c(=O)c2ccc(-c3ccncc3)cc21` it was 274 to 275 °C; in that of `COc1ccc(C(=O)Nc2ccccc2)cc1NCc1ccc(-c2ccccc2)cc1`, 222 to 223 °C; in that of `O=Cc1c(Br)ccc2cc3c(cc12)OCO3`, 165 to 166 °C.

Compound `Cc1cc2cc(CN3CCC(CCC(N)=O)CC3)cnc2cc1NC(=O)c1ccc(-c2ccc(F)cc2)cc1` showed a melting point of 223 to 227 °C. As to `COC(=O)c1c(Cl)cc(Cl)cc1NC(=O)CSc1ccc(O)cc1`, the melting point is 149 to 151 °C. Next, `CCc1noc(-c2ncc3[nH]c4cccc(OCc5ccccc5)c4c3c2COC)n1`: 180 to 184 °C; `CCNC(=N)NC(=O)Cc1ccc(Cl)cc1`: 146 to 147 °C; `CC(=O)Oc1c(C)c(C)c2c(nc(COc3ccc(CC4SC(=O)NC4=O)cc3)n2C)c1C` (stereo not given): 250 to 253 °C. As for `O=C(CCCCl)Nc1cccc(-c2ccnc3c(C(=O)c4cccs4)cnn23)c1`, the melting point is 97 to 100 °C.
